From ChEMBL document CHEMBL5149971, “Pyridones in drug discovery: Recent advances” (Bioorg Med Chem Lett, 2021)
pEC50, pIC50, pKi: −log10 of the molar value. Blank lines part the entries; values can stand above or below the compound they belong to.

Columns and labels:
rhinovirus B14 [1] = experiment: Antiviral activity against Human rhinovirus 14 infected in H1-HeLa cells assessed as reduction in viral infection measured after 2 days by XTT dye reduction method; assay type: functional, organism-based; conditions: Rhinovirus B, 48 h
rhinovirus B14 [2] = experiment: Antiviral activity against Human rhinovirus 14 infected in H1-HeLa cells assessed as reduction in viral infection measured after 5 days by XTT dye reduction method; assay type: functional, organism-based; conditions: Rhinovirus B, 120 h
[3] = Inhibition of MEK (unknown origin) in the presence of [gamma33P]ATP by scintillation counting method; parameters: species or system Homo sapiens
[4] = Oral bioavailability in hamster; assay type: ADME, organism-based, Mesocricetus auratus; conditions: in vivo
Neutrophil elastase = biological target: T1, Neutrophil elastase (Homo sapiens, UniProt P08246); experiment: Inhibition of human neutrophil elastase using methoxysuccinyl-Ala-Ala-Pro-Val-pnitroanilide as substrate by spectrophotometric analysis
T1 sequence (P08246 whole entry): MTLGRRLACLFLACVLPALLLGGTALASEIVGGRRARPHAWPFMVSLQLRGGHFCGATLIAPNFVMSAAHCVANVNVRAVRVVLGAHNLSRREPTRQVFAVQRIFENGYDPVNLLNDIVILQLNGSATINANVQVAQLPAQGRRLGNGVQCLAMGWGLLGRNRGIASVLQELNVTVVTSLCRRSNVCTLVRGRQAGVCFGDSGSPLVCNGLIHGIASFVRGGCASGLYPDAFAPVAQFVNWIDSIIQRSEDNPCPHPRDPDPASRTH

- bioavailability [4]: 77%
SMILES: CC(C)C(NC(=O)Cn1c(-c2ccc(F)cc2)ncc(N)c1=O)C(=O)C(F)(F)F (stereo not given)

- pKi (Neutrophil elastase): 9.30
SMILES: CC(C)C(NC(=O)[C@@H]1CCCN1C(=O)[C@@H](NC(=O)c1ccc(C(=O)NS(=O)(=O)c2ccc(Cl)cc2)cc1)C(C)C)C(N)=O (stereo not given in full)

Continued, compound first:

SMILES: CCOC(=O)/C=C/[C@H](CCC(N)=O)NC(=O)[C@H](Cc1ccccc1)NC(=O)[C@H](CC(C)C)NC(=O)OCc1ccccc1
- pEC50 (rhinovirus B14 [1]): 6.27

SMILES: CCOC(=O)/C=C/[C@H](C[C@@H]1CCNC1=O)NC(=O)[C@@H](CC(=O)[C@@H](NC(=O)c1cc(C)on1)C(C)C)Cc1ccc(F)cc1
- pEC50 (rhinovirus B14 [2]): 7.89

SMILES: CC(C)(C)c1nc2c3ccc(F)cc3c3c(=O)[nH]ccc3c2[nH]1
- pIC50 [3]: 6.80
